Laboratory results published in patent US4227002A, “Halo-A-23187 derivatives” (Eli Lilly and Company, priority 1978, dated 1980).
“Also recorded” adds a separate entry of the source.

Experiments:
[1] = system: Staphylococcus aureus (H-Heatley strain, NRRL B-314); assay: antibacterial bioassay (J. E. Westhead); assay type: cell-based
Source text: The compounds of this invention are useful antibacterial agents. In this aspect, these compounds may be used in the same manner in which the parent antibiotic is used, as described in U.S. Pat. No. 3,923,823. A bioassay for the antibacterial activity of A-23187 has been described by J. E. Westhead in Antimicrobial Agents and Chemotherapy 11 (5), 916-918 (1977). The test organism for this bioassay is Staphylococcus aureus (H-Heatley strain, NRRL B-314).

[2] = acute toxicity in mice, intraperitoneal; assay type: in vivo; details: mouse, in vivo, ip, intraperitoneally
Procedure: (§1) The compounds of the present invention are, in general, less toxic than the parent antibiotic. Table II summarizes the acute toxicities of representative compounds in mice, expressed as LD50, when the compounds are administered intraperitoneally.

[3] = molecular target: cation transport ATPase in liver mitochondria; assay: inhibition of cation transport ATPase in liver mitochondria, in vitro; assay type: biochemical
Source text: In yet another aspect, the compounds of this invention are active as inhibitors of the enzyme ATPase. ATPase, an alkali-metal-sensitive enzyme found in cell membranes, is involved in the energy necessary for active transport. "Active transport" refers to the energy-requiring series of operations whereby intracellular and extracellular fluids maintain their compositions. Inhibitors of ATPase reduce the energy required for active transport. Table V summarizes the results of in vitro tests measuring inhibition of cation transport ATPase in liver mitochondria [measured as half effective concentration (Ic 50) in mcg/ml].

[4] = system: mice; assay: acute toxicity in mice, intraperitoneal; assay type: in vivo; details: intraperitoneally
Procedure: as §1

[5] = system: isolated guinea-pig atria; assay: cardiac contractility in isolated guinea-pig atria; details: 10^-5 molar
Source text: The compounds of this invention are also potential cardiotonic agents. […] Response to this test is expressed as a percentage of the maximal contractile tension that could be elicited by a challenge dose of norepinephrine (10^-4 M). For a more detailed description of this test, see U.S. Pat. No. 3,985,893. In this test, 4-bromo-A-23187 free acid and its Mg^++ salt, each at a 10^-5 molar concentration, produced mean increases in contractile tension of 48 and 59 percent, respectively.

[6] = system: bovine spermatozoa; assay: Ca^++ influx induced in bovine spermatozoa, inhibition by Mg^++; assay type: cell-based; details: for Ca^++ Influx: bovine spermatozoa
Source text: The compounds of this invention affect ion transport with altered selectivities compared to the parent compound.

[7] = system: Cuinea Pig Sperm; assay: effect on acrosome reaction, guinea pig sperm; assay type: cell-based; details: untreated: 110
Source text: Table IV summarizes the effect of an illustrative compound of this invention on mammalian sperm motility and acrosome reaction.

[8] = system: Bovine Sperum; details: bovine sperm; untreated: 2
[9] = system: mammalian sperm; details: cited from earlier work
[10] = system: mammalian sperm; details: cited from earlier work; remark: listed apart in the source
[11] = cited from earlier work
[12] = ATPase induced by K^+ monazomycin

CNc1c(Cl)cc2oc(CC3OC4(CCC3C)OC(C(C)C(=O)c3ccc[nH]3)C(C)CC4C)nc2c1C(=O)O (stereo not drawn) [4-chloro-A-23187 (free acid), 6-bromo(or chloro)-5-(methylamino)-2-[[3β,9α,-11β-trimethyl-8-[1α-methyl-2-oxo-2-(1H-pyrrol-2-yl)ethyl]-1,7-dioxaspiro[5.5]undec-2β-yl]-methyl]-4-benzoxazolecarboxylic acid]
Bioassay [1]: 298 µg/mL | LD50 [2]: 10.5 mg/kg | half effective concentration (Ic 50) ([3]; ATPase induced by CaCl2): 10 µg/mL | half effective concentration (Ic 50) [3, 12]: 0.2 µg/mL

CNc1ccc2oc(CC3OC4(CCC3C)OC(C(C)C(=O)c3cc(Br)c[nH]3)C(C)CC4C)nc2c1C(=O)[O-].CNc1ccc2oc(CC3OC4(CCC3C)OC(C(C)C(=O)c3cc(Br)c[nH]3)C(C)CC4C)nc2c1C(=O)[O-].[Mg+2] (stereo not drawn) [4-bromo-A-23187 (Mg complex)]
LD50 [4]: 18.75 mg/kg × 1 | mean increase in contractile tension, percentage of the maximal contractile tension elicited by norepinephrine (10^-4 M) [5]: 59%

CNc1c(Br)cc2oc(CC3OC4(CCC3C)OC(C(C)C(=O)c3cc(Br)c[nH]3)C(C)CC4C)nc2c1C(=O)O (stereo not drawn) [4,23-dibromo-A-23187 (free acid), 6-bromo-5-(methylamino)-2-[[3β,9α,11β-trimethyl-8-[1α-methyl-2-oxo-2-(4-bromo-1H-pyrrol-2-yl)ethyl]-1,7-dioxaspiro[5.5]undec-2β-yl]methyl]-4-benzoxazolecarboxylic acid]
Bioassay [1]: 940 µg/mL | half effective concentration (Ic 50) ([3]; ATPase induced by CaCl2): 0.9 µg/mL | half effective concentration (Ic 50) [3, 12]: 0.5 µg/mL

CNc1c(Br)cc2oc(CC3OC4(CCC3C)OC(C(C)C(=O)c3[nH]c(Br)c(Br)c3Br)C(C)CC4C)nc2c1C(=O)O (stereo not drawn) [6-bromo-5-(methylamino)-2-[[3β,9α,11β-trimethyl-8-[1α-methyl-2-oxo-2-(3,4,5-tribromo-1H-pyrrol-2-yl)ethyl]-1,7-dioxaspiro[5.5]undec-2β-yl]methyl]-4-benzoxazolecarboxylic acid]
Bioassay [1]: 585 µg/mL

CNc1c(Br)cc2oc(CC3OC4(CCC3C)OC(C(C)C(=O)c3ccc[nH]3)C(C)CC4C)nc2c1C(=O)O (stereo not drawn) [4-bromo-A-23187 (free acid), 6-bromo(or chloro)-5-(methylamino)-2-[[3β,9α,-11β-trimethyl-8-[1α-methyl-2-oxo-2-(1H-pyrrol-2-yl)ethyl]-1,7-dioxaspiro[5.5]undec-2β-yl]-methyl]-4-benzoxazolecarboxylic acid]
Bioassay [1]: 835 µg/mL | LD50 [2]: 11.9 mg/kg | Ca^++ Influx ([6]; [Mg^++ ]/[Ca^++ ] 0): 3.4 nmole Ca^++ min × mg protein | Ca^++ Influx ([6]; [Mg^++ ]/[Ca^++ ] 20): 3.4 nmole Ca^++ min × mg protein | Ca^++ Influx ([6]; [Mg^++ ]/[Ca^++ ] 40): 3.4 nmole Ca^++ min × mg protein | Ca^++ Influx ([6]; [Mg^++ ]/[Ca^++ ] 80): 0.5 nmole Ca^++ min × mg protein | effectiveness of Mg^++ in inhibiting the induced influx of Ca^++ (in words) ([6]; compared with comparable dosage of A-23187): much less effective | Time Until Acrosome Reaction [7]: 30 min | half effective concentration (Ic 50) ([3]; ATPase induced by CaCl2): 0.9 µg/mL | half effective concentration (Ic 50) [3, 12]: 0.3 µg/mL | activation at 10 µM ([5]; Cavia porcellus, read-out: mean increase in contractile tension, percentage of the maximal contractile tension elicited by norepinephrine (10^-4 M)): 48% | Motility Index [8]: 5

CNc1ccc2oc(CC3OC4(CCC3C)OC(C(C)C(=O)c3ccc[nH]3)C(C)CC4C)nc2c1C(=O)O (stereo not drawn) [A-23187 (free acid), reference compound]
Bioassay [1]: 1060 µg/mL | LD50 [2]: 5.8 mg/kg | Ca^++ Influx ([6]; [Mg^++ ]/[Ca^++ ] 0): 3.5 nmole Ca^++ min × mg protein | Ca^++ Influx ([6]; [Mg^++ ]/[Ca^++ ] 5): 2.0 nmole Ca^++ min × mg protein | Ca^++ Influx ([6]; [Mg^++ ]/[Ca^++ ] 10): 1.2 nmole Ca^++ min × mg protein | Ca^++ Influx ([6]; [Mg^++ ]/[Ca^++ ] 20): 0.5 nmole Ca^++ min × mg protein | Time Until Acrosome Reaction [7]: 30 min | half effective concentration (Ic 50) ([3]; ATPase induced by CaCl2): 0.5 µg/mL | half effective concentration (Ic 50) [3, 12]: 0.5 µg/mL | Motility Index [8]: 4 | activation of sperm motility (in words) [9]: activates the motility | induction of acrosome reaction (in words) [10]: induces the acrosome reaction | selectivity for transport of divalent over monovalent cations (in words) [11]: substantially selective for the transport of divalent over monovalent cations; also recorded: not complete

CNc1ccc2oc(CC3OC4(CCC3C)OC(C(C)C(=O)c3cc(Cl)c[nH]3)C(C)CC4C)nc2c1C(=O)[O-].CNc1ccc2oc(CC3OC4(CCC3C)OC(C(C)C(=O)c3cc(Cl)c[nH]3)C(C)CC4C)nc2c1C(=O)[O-].[Mg+2] (stereo not drawn) [4-chloro-A-23187 (Mg complex)]
LD50 [4]: 29.8 mg/kg × 1
